{
  "source": "patent US20080020052A1",
  "about": "“Vascular Embolus Of Paclitaxel-Sodium Alginate Microsphere And Its Preparation” (priority 2004, published 2008)",
  "origin": "cited, not measured here",
  "data": [
    {"compound": "CC(=O)O[C@H]1C(=O)[C@@]2(C)[C@H]([C@H](OC(=O)c3ccccc3)[C@]3(O)C[C@H](OC(=O)[C@H](O)[C@@H](NC(=O)c4ccccc4)c4ccccc4)C(C)=C1C3(C)C)[C@]1(OC(C)=O)CO[C@@H]1C[C@@H]2O", "note": "[Paclitaxel, paclitaxel]", "values": [
      {"measurement": "plasma and protein binding ratio", "result": "89-98%"}
    ]}
  ]
}
